Test results: patent US10385065B2, “Antibacterial compounds” (priority 2014, dated 2019)
Converted amounts (≈) assume the structure as drawn. Where two headings read alike, the source gives them in different places.

How the values were obtained:
Type in all cases: cell-based
[1] = tested on: Staphylococcus aureus ATCC 29213; test: MIC, broth microdilution, S. aureus ATCC 29213
[2] = tested on: Legionella pneumophila ATCC 33152; test: microbe, parasite or virus in culture; conditions: ATCC33152, 48 h, read-out: MIC Legionella pneumophila ATCC 33152
[3] = tested on: human hepatic cell line (HepG2 ATCC HB-8065); test: Human cell viability assay (CellTiter-Glo), HepG2; conditions: HepG2, 24 h incubation, tested over 1-128 μg/mL, read-out: IC50 values against HepG2
How it was run: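 HepG2 seeded at 20,000 cells/well, then after 24 h given two-fold serial dilutions (1-128 μg/mL, 1% DMSO) in DMEM with 0.001% FBS and 0.3% albumin. After 24 h at 37 °C, ATP luminescence (CellTiter-Glo) read; IC50 is the concentration halving viability.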

S. aureus NRS1 MRSA = test: MIC, S. aureus NRS1; conditions: Staphylococcus aureus; Table 2; read-out: MIC S. aureus NRS1 MRSA AMG & TET resistant
[4] = tested on: Enterococcus faecium ATCC 19434; test: MIC, E. faecium ATCC 19434; conditions: ATCC19434, Table 2
[5] = tested on: Escherichia coli ATCC 25922; test: MIC, broth microdilution, E. coli ATCC 25922; conditions: ATCC25922, Table 1, wild type strain
[6] = tested on: S. aureus (MRSA) ATCC 43300; test: MIC, S. aureus ATCC 43300; conditions: Staphylococcus aureus; Table 2; read-out: MIC S. aureus (MRSA) ATCC 43300 Heterogeneous MRSA strain
[7] = tested on: Haemophilus influenzae ATCC 49247; test: MIC, H. influenzae ATCC 49247; conditions: ATCC49247, Table 4
[8] = tested on: S. aureus NRS482 MRSA FQ resistant; test: MIC, S. aureus NRS482; conditions: Staphylococcus aureus; Table 2
[9] = tested on: S. aureus VRS1 MRSA VAN resistant; test: MIC, S. aureus VRS1; conditions: Staphylococcus aureus, Table 2
[10] = tested on: S. aureus SACPX1-SP25 MSSA - FQ resistant; test: microbe, parasite or virus in culture; conditions: Staphylococcus aureus, ATCC 29213 / MSSA, read-out: MIC S. aureus SACPX1-SP25 MSSA - FQ resistant (isogenic mutant of ATCC 29213)
[11] = tested on: S. aureus NRS127 MRSA LZD resistant; test: MIC, S. aureus NRS127; conditions: Staphylococcus aureus; Table 2
[12] = tested on: Moraxella catarrhalis ATCC 25240; test: MIC, M. catarrhalis ATCC 25240; conditions: ATCC25240, Table 4
[13] = tested on: Neisseria gonorrhoeae ATCC 49226; test: MIC, N. gonorrhoeae ATCC 49226; conditions: ATCC49226, Table 4, 24 h incubation
[14] = tested on: S. epidermidis NRS101 MRSE; test: MIC, S. epidermidis NRS101; conditions: Staphylococcus epidermidis; Table 2; read-out: MIC S. epidermidis NRS101 MRSE AMG, ERY resistant
[15] = tested on: Neisseria meningitidis ATCC 13090; test: MIC, N. meningitidis ATCC 13090; conditions: ATCC13090, Table 4, 24 h incubation
S. aureus NRS100 MRSA = test: MIC, S. aureus NRS100; conditions: Staphylococcus aureus; Table 2
S. aureus NRS70 MRSA = test: MIC, S. aureus NRS70; conditions: Staphylococcus aureus; Table 2
[16] = tested on: S. aureus NRS107 MUP resistant; test: MIC, S. aureus NRS107; conditions: Staphylococcus aureus, Table 2
[17] = ATCC29213, Table 1, wild type strain, read-out: MIC S. aureus ATCC 29213
[18] = ATCC 29213 / MSSA, Table 2, read-out: MIC S. aureus (MSSA) ATCC 29213 CLSI control strain

Row | SMILES | MIC [1, 17] | MIC [1, 18] | MIC [2] | IC50 [3] | MIC (S. aureus NRS1 MRSA) | MIC [4] | MIC [5] | MIC [6] | MIC [7] | MIC [8] | MIC [9] | MIC [10] | MIC [11] | MIC [12] | MIC [13] | MIC [14] | MIC [15] | MIC (S. aureus NRS100 MRSA) | MIC (S. aureus NRS70 MRSA) | MIC [16]
1 | Cc1nc2c(=O)n3c4c(c(N5CC[C@H](CN)C5)c(F)cc4c2o1)OC[C@@H]3C [Compound 89, (2S)-6-[(3R)-3-(aminomethyl)pyrrolidin-1-yl]-7-fluoro-2,12-dimethyl-4,11-dioxa-1,13-diazatetracyclo[7.6.1.0^5,^16.0^10,^14]hexadeca-5(16),6,8,10(14),12-pentaen-15-one] | 1 to 10 µg/mL (≈ 2.69 to 26.9 µM) | 1 to 10 µg/mL (≈ 2.69 to 26.9 µM) | 1 to 10 µg/mL (≈ 2.69 to 26.9 µM) | 10 to 100 µg/mL (≈ 26.9 to 269 µM) | 1 to 10 µg/mL (≈ 2.69 to 26.9 µM) | 10 to 100 µg/mL (≈ 26.9 to 269 µM) | 1 to 10 µg/mL (≈ 2.69 to 26.9 µM) | 1 to 10 µg/mL (≈ 2.69 to 26.9 µM) | 1 to 10 µg/mL (≈ 2.69 to 26.9 µM) | 1 to 10 µg/mL (≈ 2.69 to 26.9 µM) | 1 to 10 µg/mL (≈ 2.69 to 26.9 µM) | 1 to 10 µg/mL (≈ 2.69 to 26.9 µM) | 10 to 100 µg/mL (≈ 26.9 to 269 µM) |  |  |  |  |  |  | 
2 | Cc1nc2c(=O)n3c4c(c(N5CC[C@@H](CN)C5)c(F)cc4c2o1)OC[C@@H]3C [Compound 90, (2S)-6-[(3S)-3-(aminomethyl)pyrrolidin-1-yl]-7-fluoro-2,12-dimethyl-4,11-dioxa-1,13-diazatetracyclo[7.6.1.0^5,^16.0^10,^14]hexadeca-5(16),6,8,10(14),12-pentaen-15-one] | < 1 µg/mL | < 1 µg/mL | 1 to 10 µg/mL (≈ 2.69 to 26.9 µM) | 10 to 100 µg/mL (≈ 26.9 to 269 µM) | 1 to 10 µg/mL (≈ 2.69 to 26.9 µM) |  | 1 to 10 µg/mL (≈ 2.69 to 26.9 µM) | < 1 µg/mL | 1 to 10 µg/mL (≈ 2.69 to 26.9 µM) | 1 to 10 µg/mL (≈ 2.69 to 26.9 µM) | 10 to 100 µg/mL (≈ 26.9 to 269 µM) | 1 to 10 µg/mL (≈ 2.69 to 26.9 µM) | 1 to 10 µg/mL (≈ 2.69 to 26.9 µM) | 1 to 10 µg/mL (≈ 2.69 to 26.9 µM) |  |  |  |  |  | 
3 | C[C@H]1COc2c(-c3cc(F)c(N)cc3F)ccc3c4ocnc4c(=O)n1c23 [Compound 93, (2S)-6-(4-amino-2,5-difluorophenyl)-2-methyl-4,11-dioxa-1,13-diazatetracyclo[7.6.1.0^5,^16.0^10,^14]hexadeca-5(16),6,8,10(14),12-pentaen-15-one] | 1 to 10 µg/mL (≈ 2.71 to 27.1 µM) | 1 to 10 µg/mL (≈ 2.71 to 27.1 µM) | < 1 µg/mL | > 100 µg/mL |  | 10 to 100 µg/mL (≈ 27.1 to 271 µM) | 1 to 10 µg/mL (≈ 2.71 to 27.1 µM) | < 1 µg/mL | < 1 µg/mL | 1 to 10 µg/mL (≈ 2.71 to 27.1 µM) | 1 to 10 µg/mL (≈ 2.71 to 27.1 µM) | 1 to 10 µg/mL (≈ 2.71 to 27.1 µM) |  | 1 to 10 µg/mL (≈ 2.71 to 27.1 µM) | < 1 µg/mL |  |  |  |  | 
4 | C[C@H]1COc2c(-c3ccc(N)nc3)ccc3c4ocnc4c(=O)n1c23 [Compound 95, (-2S)-6-(6-aminopyridin-3-yl)-2-methyl-4,11-dioxa-1,13-diazatetracyclo[7.6.1.0^5,^16.0^10,^14]hexadeca-5(16),6,8,10(14),12-pentaen-15-one] | 1 to 10 µg/mL (≈ 2.99 to 29.9 µM) | 1 to 10 µg/mL (≈ 2.99 to 29.9 µM) |  | > 100 µg/mL | 1 to 10 µg/mL (≈ 2.99 to 29.9 µM) | 10 to 100 µg/mL (≈ 29.9 to 299 µM) | 1 to 10 µg/mL (≈ 2.99 to 29.9 µM) | 1 to 10 µg/mL (≈ 2.99 to 29.9 µM) | < 1 µg/mL | 1 to 10 µg/mL (≈ 2.99 to 29.9 µM) | 1 to 10 µg/mL (≈ 2.99 to 29.9 µM) |  | 1 to 10 µg/mL (≈ 2.99 to 29.9 µM) |  |  | 1 to 10 µg/mL (≈ 2.99 to 29.9 µM) |  |  |  | 
5 | Cc1c(-c2cc(F)c(N)cc2F)ccc2c3oc(CN)nc3c(=O)n(C3CC3)c12 [Compound 100, 7-(4-amino-2,5-difluoro-phenyl)-2-(aminomethyl)-5-cyclopropyl-6-methyl-oxazolo[4,5-c]quinolin-4-one] | < 1 µg/mL | < 1 µg/mL | < 1 µg/mL | > 100 µg/mL | < 1 µg/mL | 1 to 10 µg/mL (≈ 2.52 to 25.2 µM) | < 1 µg/mL | < 1 µg/mL | < 1 µg/mL | < 1 µg/mL | 1 to 10 µg/mL (≈ 2.52 to 25.2 µM) | < 1 µg/mL | 1 to 10 µg/mL (≈ 2.52 to 25.2 µM) | < 1 µg/mL | < 1 µg/mL | < 1 µg/mL | < 1 µg/mL |  |  | 
6 | Cc1c(-c2cc(F)c(N)cc2F)ccc2c3scnc3c(=O)n(C3CC3)c12 [Compound 108, 7-(4-amino-2,5-difluorophenyl)-5-cyclopropyl-6-methyl-thiazolo[4,5-c]quinolin-4-one] | < 1 µg/mL | < 1 µg/mL |  | 10 to 100 µg/mL (≈ 26.1 to 261 µM) | < 1 µg/mL | 10 to 100 µg/mL (≈ 26.1 to 261 µM) | 1 to 10 µg/mL (≈ 2.61 to 26.1 µM) | < 1 µg/mL | < 1 µg/mL | < 1 µg/mL | < 1 µg/mL | < 1 µg/mL | < 1 µg/mL |  |  | < 1 µg/mL |  |  |  | 
7 | Cc1onc(-c2ccccc2)c1C(=O)N[C@@H]1C(=O)N2[C@@H]1SC(C)(C)[C@@H]2C(=O)O [Oxacillin, reference compound] |  | < 1 µg/mL |  | 10 to 100 µg/mL (≈ 24.9 to 249 µM) | > 100 µg/mL | 10 to 100 µg/mL (≈ 24.9 to 249 µM) |  | < 1 µg/mL | > 100 µg/mL |  | < 1 µg/mL | 1 to 10 µg/mL (≈ 2.49 to 24.9 µM) | < 1 µg/mL |  |  | 1 to 10 µg/mL (≈ 2.49 to 24.9 µM) |  | > 100 µg/mL | 10 to 100 µg/mL (≈ 24.9 to 249 µM) | < 1 µg/mL
